Laboratory results: patent publication US11197893B2, “Pure platelet-rich plasma (P-PRP) composition for treatment of subclinical mastitis and methods of producing and using the same” (Universidad de Caldas, priority 2016, dated 2021)

Tests used:
Streptococcus agalactiae = test: Non-inferiority trial: bacteriological cure, Strep. agalactiae infections; format: in vivo, cows
Method: (§1) A non-inferiority randomized clinical trial was conducted, following methodology described in Schukken et al., “Noninferiority Trial Comparing a First-Generation Cephalosporin With a Third-Generation Cephalosporin in the Treatment of Nonsevere Clinical Mastitis in Dairy Cows,” J. Dairy Sci. 96(10): 6763-74 (2013). […] Ha: [Rcure(cefquinome)−Rcure(P-PRP)]>−Δ [2] where “Rcure”is the cure risk and “Δ” is the non-inferiority margin. Results were interpreted according to the principles for a non-inferiority trial (Piaggio et al., “Reporting of Noninferiority and Equivalence Randomized Trials: Extension of the CONSORT 2010 Statement,” JAMA 308(24): 2594-604 (2012); Schukken et al. (2013)).
(§2) The milk samples were streaked onto agar plates containing 5% sheep blood and 0.1% esculin. The agar plates were incubated at 37.5° C. and visually inspected at 24 hours and 48 hours for bacterial growth. Morphology and Gram staining were used for initial identification. A catalase test was used to differentiate staphylococci from streptococci, and a coagulase test was performed on catalase-positive cocci to confirm presence of Staphylococcus aureus. Gram-positive and catalase-negative cocci were differentiated by their reaction to the hydrolysis of esculin under ultraviolet light. […]

IFN-γ = test: Cytokine concentrations in milk of treated cows (ELISA); format: in vivo
Method: Once cows were treated, composite milk samples from both treated groups were collected at days 21 and 22 after treatment for SCC and microbiological analyses. Procedures for SCC and microbiology were previously described. Treatment was repeated in cows that remained positive for major Gram-positive bacteria, receiving the same product used for the first treatment 4 days after collecting the second milk sample. A final milk sampling was conducted on all refractory cases 21 and 22 days after the repeated treatment. Individual cow SCC, including laboratory data and pre- and post-treatment concentration of cytokines (IL-1, IL-2, IL-4, IL-6, IL-8, IFN-γ, and TNF-α), were generated for each milk sample. No more than two treatment attempts per cow were performed and used in the study.
Proteins were analyzed in hemoderivatives and whole milk using commercial ELISA development kits from R&D Systems (Minneapolis, Minn., USA) with the exception of […]. PDGF-BB (Human PDGF-BB DuoSet, DY220), TGF-β1 (Human TGF-β1 DuoSet, DY240E), and PF4 (Human CXCL4/PF4 Duoset, DY795), which were determined using human antibodies. […]

[1] = Somatic cell count (LnSCC) in milk of treated cows; format: in vivo; conditions: days 21, 22, 47, 48 vs day 0; FIG. 7
Source text: Two individual composite milk samples were aseptically collected from each cow during the first visit to the herd in order to select the cows to be treated for subclinical mastitis. These milk samples were refrigerated and submitted to Universidad de Caldas for analysis, with one of the samples being used for analysis of subclinical mastitis using an automated cell counter (FOSSOMATIC, from Foss, Hillerod, Denmark). The subclinical mastitis results were expressed as the natural log (LnSCC), in thousands/mL to normalize the data distribution. […]
Cure was defined at the cow level. […] Cure risk was statistically assessed for initial treatment (samples taken at days 21 and 22) and treatment of refractory cases samples (samples taken at days 47 and 48), independently. […]
The statistical analyses of LnSCC and the milk concentration of IL-1, IL-2, IL-4, IL-6, IL-8, IFN-γ, and TNF-αresults were done using linear regression. […] The linear regression model used was: y=intercept+treatment+herd+parity+LnSCC+error [4] where y corresponds to LnSCC after treatment on days 21 and 47 for cows treated one or two times, respectively, and the milk concentrations of IL-1, IL-2, IL-4, IL-6, IL-8, IFN-γ, and TNF-α, which were measured only at days 0 and 21. […]

[2] = test system: Gram-positive major pathogens; test: Non-inferiority randomized clinical trial: bacteriological cure in cows with subclinical mastitis; format: in vivo
Method: as §1
The milk samples were streaked onto agar plates containing 5% sheep blood and 0.1% esculin. The agar plates were incubated at 37.5° C. and visually inspected at 24 hours and 48 hours for bacterial growth. Morphology and Gram staining were used for initial identification. A catalase test was used to differentiate staphylococci from streptococci, and a coagulase test was performed on catalase-positive cocci to confirm presence of Staphylococcus aureus. Gram-positive and catalase-negative cocci were differentiated by their reaction to the hydrolysis of esculin under ultraviolet light. The Christie, Atkins, Munch-Petersen (CAMP) test and esculin reaction were used to differentiate Streptococcus agalactiae and Streptococcus dysgalactiae, and esculin reaction and culture in enterococcosel agar (from Becton-Dickinson, Durham, N.C., USA) were used to identify Streptococcus uberis. Their morphology and Gram staining were used to identify Corynebacterium species. Growth in McConckey agar and further biochemical tests, such as citrate, indole, oxidase and motility, were used to identify coliforms. Those cultures that presented more than two bacterial species were considered contaminated and not informative of intramammary infection. […]

Streptococcus uberis = test: Non-inferiority trial: bacteriological cure, Strep. uberis infections; format: in vivo, cows; conditions: Strep. uberis cases; margin −0.175; 95% CI; FIG. 6
Method: as §1, §2

CO/N=C(\C(=O)N[C@@H]1C(=O)N2C(C(=O)[O-])=C(C[n+]3cccc4c3CCCC4)CS[C@H]12)c1csc(N)n1.O=S(=O)(O)O [cefquinome sulphate]
Risk difference for bacteriological cure, non-inferiority interpretation (Streptococcus agalactiae; Strep. agalactiae cases, margin −0.175, 95% CI, FIG. 6): better, although non-inferiority is inconclusive
Cure risk for Strep. agalactiae (Streptococcus agalactiae; in vivo): 100%
Concentration of IFN-γ in milk, change (IFN-γ; by day 47 in cows treated twice): increased
Concentration of IFN-γ in milk, comparison between groups (IFN-γ; days 0 and 22): higher
Change of mean LnSCC in milk after the start of the trial [1]: no differences
Risk difference for bacteriological cure, non-inferiority interpretation ([2]; all cases, margin −0.175, 95% CI, FIG. 6): better
Overall bacteriological cure, percent of cows ([2]; cows with subclinical mastitis, EG n=54, RG n=49): 71%
Overall bacteriological cure, number of cows ([2]; cows with subclinical mastitis, intramammary infusion, three consecutive milkings, EG n=54, RG n=49): 35 cows
Risk difference for bacteriological cure, non-inferiority interpretation (Streptococcus uberis): better
